The numbers were not newly measured in US20210212947A1, “Docetaxel palmitate liposome and preparation method thereof” (SHANGHAI WEI ER BIOPHARMACEUTICAL TECH CO., LTD., priority 2018, published 2021), which cites them from elsewhere.

For data set [1] the following is noted: times that of paclitaxel.

On to `CC(=O)OC12COC1CC(O)C1(C)C(=O)C(O)C3=C(C)C(OC(=O)C(O)C(NC(=O)OC(C)(C)C)c4ccccc4)CC(O)(C(OC(=O)c4ccccc4)C21)C3(C)C` (stereo not drawn) [Docetaxel, [2aR-(2aα,4β,4aβ,6β,9α(aR*,βS*),11a,12a,12aα,12bα)]-β-[[(1,1dimethylethyl (Oxy)carbonyl]amino]-α-hydroxyphenylpropionic acid [12b-acetoxy-12-benzoyloxy-2a,3,4,4a,5,6,9,10,11,12,12a,12b -Dodecahydro-4,6,11-trihydroxy-4a,8,13,13-tetramethyl-5-oxo-7,11-methylene-1H-cyclodecpentaeno [3,4]Benzo [1,2-b]oxetane-9-yl]ester], for which the “solubility in organic solvents” value (organic solvents such as ethanol, acetone, ether and benzene) is “soluble”. Besides, where the note is “water”, the solubility in water result is listed as “insoluble”. Besides, in data set [1], the “anti-tumor activity relative to paclitaxel” value is listed as 1.3-12 times.
